Measured values: patent US20220152085A1, “COMBINATION IMMUNOREGULATION AND USES THEREOF” (Ohio State Innovation Foundation, priority 2019, published 2022)
Where a name gives a salt, the structure may show the parent alone.

Test system: E.G7-OVA cells
Test: Endocytic pathways: cellular uptake of PL1-Alexa-Fluor 647-labeled RNA nanoparticles with endocytic inhibitors, flow cytometry
Type: cell-based
Details: inhibitor 0.5 h before nanoparticles, flow cytometry after 3 h, FIG. 13
Protocol: E.G7-OVA cells were treated with 5-(N-Methyl-N-isopropyl)amiloride (EIPA), chlorpromazine hydrochloride (CPZ), or methyl-β-cyclodextrin (MβCD). After 0.5 h, cells were treated with PL1-Alexa-Fluor 647-labeled RNA nanoparticles. After 3 h, cells were analyzed by flow cytometry. All data are from n=3 biologically independent samples and are presented as mean±S.E.M. Statistical significance was analyzed by the two-tailed Student's t-test. *P<0.05.
Biomimetic compounds, phospholipids and glycolipids, are composed of a biomimetic head (phosphate head or glyco head), an ionizable amino core, and multiple hydrophobic tails (FIG. 11). These phospholipid and glycolipid derivatives (PLs and GLs) were synthesized according to previously reported procedures. See, for example, WO/2019/027999. […] Following this synthetic route, PL1-18 and GL1-16 materials were synthesized (FIG. 4C), which were characterized by […] nuclear magnetic resonance (NMR) and mass spectroscopy (MS) (FIG. 4C). Next, PLs and GLs nanoparticles were formulated with firefly luciferase mRNA (FLuc mRNA), and were characterized according to size, surface charge, and mRNA encapsulation efficiency (FIGS. 12A-12C). […]

Compound	inhibition of cellular uptake of PL1 nanoparticles [%]
CN(C)CCCN1c2ccccc2Sc2ccc(Cl)cc21 [CPZ, chlorpromazine hydrochloride]	56
methyl-β-cyclodextrin [MβCD]	39
